The MIC is the least concentration at which growth counts as inhibited. Lower therefore signals greater potency.

Consider 15 molecules from ChEMBL document CHEMBL4184279, “Synthesis, antimicrobial activity and acid dissociation constants of methyl 5,5-diphenyl-1-(thiazol-2-yl)pyrrolidine-2-carboxylate derivatives” (Bioorg Med Chem Lett, 2018).

Series [1] is described as follows: Acid dissociation constant, pKa for NH group of the compound in DMSO-water mixture at 25 +/- 0.1 degC by potentiometric method. It counts as physicochemical.
The next series has as its system Candida tropicalis. In words: Antifungal activity against Candida tropicalis ATCC 750 after 48 hrs by microdilution broth method. Conditions: ATCC 750, 48 h. The format is functional. In general terms: Dilution methods test growth across graded concentrations, often in twofold steps.
Another series has as its system Nakaseomyces glabratus. As to the kind of experiment: Antifungal activity against Candida glabrata ATCC 90030 after 48 hrs by microdilution broth method. The format is functional. To be noted: ATCC 90030, 48 h.
The subject of another series is Candida parapsilosis. As to the kind of experiment: Antifungal activity against Candida parapsilosis ATCC 22019 after 48 hrs by microdilution broth method. Conditions: Lodderomyces parapsilosis, ATCC 22019, 48 h. It counts as functional.
The next series concerns Escherichia coli. In words: Antibacterial activity against Escherichia coli. It counts as functional.
Series [2] in a line: Acid dissociation constant, pKa for OH group of the compound in DMSO-water mixture at 25 +/- 0.1 degC by potentiometric method. The format is physicochemical.
The test system of the next series is Bacillus spizizenii. In words: Antibacterial activity against Bacillus subtilis ATCC 6633. It counts as functional.
The subject of the next series is Staphylococcus aureus. In words: Antibacterial activity against Staphylococcus aureus ATCC 25925. It counts as functional.
The nature of series [3]: Acid dissociation constant, pKa for SH group of the compound in DMSO-water mixture at 25 +/- 0.1 degC by potentiometric method. It counts as physicochemical.
Series [4] deals with Mycobacterium tuberculosis. In words: Antimycobacterial activity against Mycobacterium tuberculosis H37Rv after 7 days by REMA. The format is functional. To be noted: 168 h.
The next series deals with Acinetobacter baumannii. In words: Antibacterial activity against Acinetobacter baumannii ATCC 02026. It counts as functional.
A further series has as its system Aeromonas hydrophila. In words: Antibacterial activity against Aeromonas hydrophila ATCC 95080. It counts as functional.

Values after ≈ are worked out from the molar mass of the structure shown.

In the case of `COC(=O)[C@H]1[C@@H](C(=O)OC)C(c2ccccc2)(c2ccccc2)N(c2nc(-c3ccccc3)c(C(=O)c3ccc(Br)cc3)s2)[C@H]1C(=O)OC`, the pKa in series [1] is 3.27; in [2] it was 9.23; in series [3], 6.02. Also, the MIC stood at 125 µg/mL (≈ 169 µM) in the series on Candida tropicalis; 31.2 µg/mL (≈ 42.3 µM) against Nakaseomyces glabratus; 125 µg/mL (≈ 169 µM) against Candida parapsilosis; 125 µg/mL (≈ 169 µM) in the series with Escherichia coli; 62.5 µg/mL (≈ 84.5 µM) against Bacillus spizizenii; 125 µg/mL (≈ 169 µM) with Staphylococcus aureus. For the same molecule, the values for the MIC (in series [4]; against Acinetobacter baumannii; with Aeromonas hydrophila) were 3.91 µg/mL (≈ 5.29 µM), 62.5 µg/mL (≈ 84.5 µM) and 62.5 µg/mL (≈ 84.5 µM), respectively.
Take `COC(=O)[C@H]1C[C@@H](S(=O)(=O)c2ccccc2)C(c2ccccc2)(c2ccccc2)N1c1nc(-c2ccccc2)c(C(=O)c2ccc(F)cc2)s1`: the pKa in series [1] turned out to be 3.4; in series [2], 8.73; in series [3], 5.84. The MIC was found to be 62.5 µg/mL (≈ 88.9 µM) against Candida tropicalis; 31.2 µg/mL (≈ 44.5 µM) against Nakaseomyces glabratus; 62.5 µg/mL (≈ 88.9 µM) against Candida parapsilosis; 125 µg/mL (≈ 178 µM) against Escherichia coli; 62.5 µg/mL (≈ 88.9 µM) against Bacillus spizizenii; 125 µg/mL (≈ 178 µM) against Staphylococcus aureus. Besides, the results for the MIC (in [4]; against Acinetobacter baumannii; with Aeromonas hydrophila) were 1.96 µg/mL (≈ 2.79 µM), 62.5 µg/mL (≈ 88.9 µM) and 62.5 µg/mL (≈ 88.9 µM), respectively.
On to `COC(=O)[C@H]1C[C@@H](S(=O)(=O)c2ccccc2)C(c2ccccc2)(c2ccccc2)N1c1nc(-c2ccccc2)c(C(=O)c2ccc(C#N)cc2)s1`, for which the pKa is 3.56 in series [1], 8.83 in series [2] and 5.78 in series [3]. Moreover, the minimum inhibitory concentration (MIC) with Candida tropicalis was found to be 62.5 µg/mL (≈ 88 µM); with Nakaseomyces glabratus it was 31.2 µg/mL (≈ 44 µM); with Candida parapsilosis, 62.5 µg/mL (≈ 88 µM); with Escherichia coli, 125 µg/mL (≈ 176 µM); with Bacillus spizizenii, 62.5 µg/mL (≈ 88 µM); in the series with Staphylococcus aureus it was 125 µg/mL (≈ 176 µM). In addition, the MIC in [4] stood at 3.91 µg/mL (≈ 5.51 µM); against Acinetobacter baumannii, 62.5 µg/mL (≈ 88 µM); with Aeromonas hydrophila it was 62.5 µg/mL (≈ 88 µM).
In the case of `COC(=O)[C@H]1[C@@H](C(=O)OC)C(c2ccccc2)(c2ccccc2)N(c2nc(-c3ccccc3)c(C(=O)c3ccc(C#N)cc3)s2)[C@H]1C(=O)OC`, the pKa was determined as 3.53 in series [1], 8.9 in [2] and 5.66 in series [3]. Besides, the MIC in the series on Candida tropicalis was found to be 62.5 µg/mL (≈ 91.1 µM); against Nakaseomyces glabratus it was 31.2 µg/mL (≈ 45.6 µM); in the series on Candida parapsilosis, 31.2 µg/mL (≈ 45.6 µM); in the series with Escherichia coli, 125 µg/mL (≈ 182 µM); in the series on Bacillus spizizenii it was 62.5 µg/mL (≈ 91.1 µM); in the series on Staphylococcus aureus it was 125 µg/mL (≈ 182 µM). For the same molecule, the MIC stood at 7.81 µg/mL (≈ 11.4 µM) in [4], 62.5 µg/mL (≈ 91.1 µM) against Acinetobacter baumannii and 62.5 µg/mL (≈ 91.1 µM) against Aeromonas hydrophila.
As for `COC(=O)[C@H]1[C@@H](C(=O)OC)C(c2ccccc2)(c2ccccc2)N(c2nc(-c3ccccc3)c(C(=O)c3ccc(OC)cc3)s2)[C@H]1C(=O)OC`, the pKa stood at 2.83 in [1], 10.2 in series [2] and 6.77 in [3]. Besides, the MIC in the series on Candida tropicalis turned out to be 62.5 µg/mL (≈ 90.5 µM); against Nakaseomyces glabratus, 31.2 µg/mL (≈ 45.2 µM); in the series with Candida parapsilosis, 62.5 µg/mL (≈ 90.5 µM); against Escherichia coli, 250 µg/mL (≈ 362 µM); against Bacillus spizizenii, 125 µg/mL (≈ 181 µM); in the series with Staphylococcus aureus it was 125 µg/mL (≈ 181 µM). Also, the minimum inhibitory concentration (MIC) in series [4] was 15.6 µg/mL (≈ 22.6 µM); against Acinetobacter baumannii, 62.5 µg/mL (≈ 90.5 µM); against Aeromonas hydrophila, 62.5 µg/mL (≈ 90.5 µM).
For `COC(=O)[C@H]1C[C@@H](C(=O)OC)C(c2ccccc2)(c2ccccc2)N1c1nc(-c2ccccc2)c(C(=O)c2ccc(F)cc2)s1`, the results for the pKa in series [1], in series [2] and in series [3] were 2.63, 9.69 and 6.09, respectively. Further, the MIC against Candida tropicalis came out at 62.5 µg/mL (≈ 101 µM); with Nakaseomyces glabratus, 62.5 µg/mL (≈ 101 µM); in the series with Candida parapsilosis, 62.5 µg/mL (≈ 101 µM); with Escherichia coli, 125 µg/mL (≈ 201 µM); against Bacillus spizizenii, 250 µg/mL (≈ 403 µM); against Staphylococcus aureus it was 125 µg/mL (≈ 201 µM). The minimum inhibitory concentration (MIC) in series [4] stood at 15.6 µg/mL (≈ 25.2 µM); with Acinetobacter baumannii it was 250 µg/mL (≈ 403 µM); with Aeromonas hydrophila, 125 µg/mL (≈ 201 µM).
For the molecule `COC(=O)[C@H]1C[C@@H](S(=O)(=O)c2ccccc2)C(c2ccccc2)(c2ccccc2)N1c1nc(-c2ccccc2)c(C(=O)c2ccccc2)s1`, the values for the pKa in [1], in series [2] and in [3] were 3.26, 8.64 and 5.9, respectively. Moreover, the MIC was found to be 31.2 µg/mL (≈ 45.6 µM) with Candida tropicalis; 31.2 µg/mL (≈ 45.6 µM) in the series on Nakaseomyces glabratus; 62.5 µg/mL (≈ 91.3 µM) in the series with Candida parapsilosis; 125 µg/mL (≈ 183 µM) against Escherichia coli; 62.5 µg/mL (≈ 91.3 µM) against Bacillus spizizenii; 125 µg/mL (≈ 183 µM) against Staphylococcus aureus. Further, the figures for the MIC (in series [4]; against Acinetobacter baumannii; with Aeromonas hydrophila) were 3.91 µg/mL (≈ 5.71 µM), 31.2 µg/mL (≈ 45.6 µM) and 62.5 µg/mL (≈ 91.3 µM), respectively.
Take `COC(=O)[C@H]1C[C@@H](S(=O)(=O)c2ccccc2)C(c2ccccc2)(c2ccccc2)N1c1nc(-c2ccccc2)c(C(=O)c2ccc(OC)cc2)s1`: the pKa in series [1] is 3.35; in series [2], 9.28; in series [3] it was 6.01. In addition, the MIC in the series on Candida tropicalis was 62.5 µg/mL (≈ 87.4 µM); with Nakaseomyces glabratus it was 31.2 µg/mL (≈ 43.7 µM); against Candida parapsilosis, 62.5 µg/mL (≈ 87.4 µM); in the series with Escherichia coli, 125 µg/mL (≈ 175 µM); in the series on Bacillus spizizenii, 62.5 µg/mL (≈ 87.4 µM); in the series with Staphylococcus aureus it was 125 µg/mL (≈ 175 µM). The results for the MIC (in [4]; against Acinetobacter baumannii; with Aeromonas hydrophila) were 3.91 µg/mL (≈ 5.47 µM), 62.5 µg/mL (≈ 87.4 µM) and 62.5 µg/mL (≈ 87.4 µM), respectively.
With `COC(=O)[C@H]1[C@@H](C(=O)OC)C(c2ccccc2)(c2ccccc2)N(c2nc(-c3ccccc3)c(C(=O)c3ccccc3)s2)[C@H]1C(=O)OC`, the pKa in series [1] amounted to 3.35; in series [2], 8.5; in series [3], 5.81. Also, the MIC against Candida tropicalis was 62.5 µg/mL (≈ 94.6 µM); against Nakaseomyces glabratus it was 31.2 µg/mL (≈ 47.3 µM); against Candida parapsilosis, 62.5 µg/mL (≈ 94.6 µM); with Escherichia coli it was 125 µg/mL (≈ 189 µM); in the series with Bacillus spizizenii, 62.5 µg/mL (≈ 94.6 µM); with Staphylococcus aureus it was 125 µg/mL (≈ 189 µM). The MIC in series [4] was 15.6 µg/mL (≈ 23.6 µM); against Acinetobacter baumannii, 62.5 µg/mL (≈ 94.6 µM); against Aeromonas hydrophila, 62.5 µg/mL (≈ 94.6 µM).
As to `COC(=O)[C@H]1[C@@H](C(=O)OC)C(c2ccccc2)(c2ccccc2)N(c2nc(-c3ccccc3)c(C(=O)c3ccc(F)cc3)s2)[C@H]1C(=O)OC`, the pKa in [1] worked out at 2.73; in series [2] it was 10.2; in [3] it was 6.37. Also, the MIC worked out at 62.5 µg/mL (≈ 92.1 µM) against Candida tropicalis; 31.2 µg/mL (≈ 46 µM) against Nakaseomyces glabratus; 62.5 µg/mL (≈ 92.1 µM) against Candida parapsilosis; 125 µg/mL (≈ 184 µM) in the series on Escherichia coli; 62.5 µg/mL (≈ 92.1 µM) with Bacillus spizizenii; 125 µg/mL (≈ 184 µM) against Staphylococcus aureus. Further, the MIC in series [4] came to 15.6 µg/mL (≈ 23 µM); with Acinetobacter baumannii, 62.5 µg/mL (≈ 92.1 µM); with Aeromonas hydrophila, 62.5 µg/mL (≈ 92.1 µM).
For the molecule `COC(=O)[C@H]1C[C@@H](S(=O)(=O)c2ccccc2)C(c2ccccc2)(c2ccccc2)N1c1nc(-c2ccccc2)c(C(=O)c2ccc(Br)cc2)s1`, the pKa in [1] is 2.97; in series [2], 9.53; in series [3], 5.99. Moreover, the minimum inhibitory concentration (MIC) with Candida tropicalis came to 62.5 µg/mL (≈ 81.8 µM); in the series with Nakaseomyces glabratus it was 31.2 µg/mL (≈ 40.9 µM); against Candida parapsilosis, 62.5 µg/mL (≈ 81.8 µM); with Escherichia coli it was 125 µg/mL (≈ 164 µM); against Bacillus spizizenii, 62.5 µg/mL (≈ 81.8 µM); in the series with Staphylococcus aureus, 125 µg/mL (≈ 164 µM). Also, the MIC in [4] came to 0.98 µg/mL (≈ 1.28 µM); against Acinetobacter baumannii, 31.2 µg/mL (≈ 40.9 µM); in the series on Aeromonas hydrophila, 62.5 µg/mL (≈ 81.8 µM).
With `CC1(C)S[C@@H]2[C@H](NC(=O)[C@H](N)c3ccccc3)C(=O)N2[C@H]1C(=O)O` [AMPICILLIN], the MIC was 15.6 µg/mL (≈ 44.7 µM) with Escherichia coli; 0.98 µg/mL (≈ 2.8 µM) in the series with Bacillus spizizenii; 31.2 µg/mL (≈ 89.4 µM) against Staphylococcus aureus; 125 µg/mL (≈ 358 µM) in the series on Acinetobacter baumannii; 31.2 µg/mL (≈ 89.4 µM) against Aeromonas hydrophila.
`CC[C@@H](CO)NCCN[C@@H](CC)CO` [ETHAMBUTOL]: it took 1.96 µg/mL (≈ 9.59 µM) to inhibit growth in series [4] (MIC).
Take `OC(Cn1cncn1)(Cn1cncn1)c1ccc(F)cc1F` [FLUCONAZOLE]: the MIC with Candida tropicalis came to 15.6 µg/mL (≈ 51 µM); in the series with Nakaseomyces glabratus, 3.9 µg/mL (≈ 12.7 µM); with Candida parapsilosis, 3.9 µg/mL (≈ 12.7 µM).
Consider `NNC(=O)c1ccncc1` [ISONIAZID], for which, in series [4], the MIC was found to be 0.98 µg/mL (≈ 7.15 µM).
